Data taken from EPA's ToxRefDB 2.

How the values were obtained:
[1] = test system: rat; conditions: Subchronic oral toxicity in rodents, other, Feed, dose end: 13 week, group: systemic, systemic / in life observation / body weight / body weight gain + systemic / pathology microscopic / liver / infiltration cellular + …
[2] = test system: dog; conditions: Subchronic oral toxicity in nonrodent, beagle, Feed, dose end: 13 week, group: systemic, systemic / in life observation / body weight / body weight gain + systemic / in life observation / food consumption / food consumption
[3] = test system: rat; conditions: Prenatal developmental toxicity study, other, Oral, Gavage/Intubation, dose end: 15 GD
[4] = test system: rat; conditions: Prenatal developmental toxicity study; sprague dawley; Oral; Gavage/Intubation; dose end: 17 GD; group: maternal; systemic / in life observation / body weight / body weight + systemic / in life observation / body weight / body weight gain
[5] = test system: rat; conditions: Prenatal developmental toxicity study; sprague dawley; Oral; Gavage/Intubation; dose end: 17 GD; group: maternal; systemic / in life observation / body weight / body weight + systemic / in life observation / body weight / body weight gain + systemic / in…
[6] = test system: rabbit; conditions: Prenatal developmental toxicity study, new zealand white, Oral, Gavage/Intubation, dose end: 18 GD
[7] = test system: rat; conditions: Sub-acute repeat dose toxicity, sprague dawley, Oral, Feed, dose end: 28 day, group: systemic
[8] = test system: rabbit; conditions: Prenatal developmental toxicity study, new zealand white, Oral, Gavage/Intubation, dose end: 18 GD; remark: listed apart in the source
[9] = test system: mouse; conditions: Carcinogenicity, cd1, Oral, Feed, dose end: 98 week, group: systemic
[10] = group: developmental, developmental / developmental malformation / bone / unossified + developmental / developmental malformation / bone / full supernumerary + …
[11] = group: maternal, systemic / in life observation / body weight / body weight gain
[12] = group: maternal, systemic / in life observation / body weight / body weight gain + systemic / in life observation / body weight / body weight + systemic / in…
[13] = group: developmental, systemic / in life observation / body weight / fetal weight
[14] = group: maternal, systemic / in life observation / clinical signs / defecation + systemic / in life observation / mortality / mortality
[15] = group: maternal, systemic / in life observation / clinical signs / defecation + systemic / in life observation / mortality / mortality + systemic / in life …
[16] = systemic / clinical chemistry / lactic acid dehydrogenase (ldh) / lactic acid dehydrogenase (ldh) + systemic / clinical chemistry / sorbitol…
[17] = group: developmental, developmental / developmental malformation / brain / misshapen cerebrum + developmental / developmental malformation / eye / malpositioned…
[18] = systemic / pathology microscopic / liver / adenoma + systemic / pathology microscopic / liver / adenoma/carcinoma combined

## O=C(O)COc1ccc(Cl)cc1 [4-Chlorophenoxyacetic acid]
[1]
  LEL: 517 mg/kg/day
  LOAEL: 517 mg/kg/day
  NEL: 132 mg/kg/day
  NOAEL: 132 mg/kg/day
[2]
  LEL: 17.4 mg/kg/day
  LOAEL: 17.4 mg/kg/day
  NEL: 4.05 mg/kg/day
  NOAEL: 4.05 mg/kg/day
[3]; group: developmental, developmental / developmental malformation / bone / unossified
  LOAEL: 300 mg/kg/day
[3]; group: developmental, developmental / developmental malformation / bone / unossified + developmental / developmental malformation / bone / full supernumerary
  LEL: 300 mg/kg/day
[3]; [10]
  NEL: 150 mg/kg/day
  NOAEL: 150 mg/kg/day
[3]; [11]
  LEL: 300 mg/kg/day
  LOAEL: 300 mg/kg/day
[3]; [12]
  NEL: 150 mg/kg/day
  NOAEL: 150 mg/kg/day

## NCc1cccc(C2CCN(C(=O)c3ccc(C#Cc4ccccc4F)o3)CC2)c1 [AVE5638]
[4]
  LEL: 40 mg/kg/day
  LOAEL: 40 mg/kg/day
  NEL: 5 mg/kg/day
  NOAEL: 5 mg/kg/day
[5]
  LEL: 40 mg/kg/day
  LOAEL: 40 mg/kg/day
  NEL: 5 mg/kg/day
  NOAEL: 5 mg/kg/day
[6]; [13]
  LEL: 225 mg/kg/day
  LOAEL: 225 mg/kg/day
  NEL: 100 mg/kg/day
  NOAEL: 100 mg/kg/day
[6]; [14]
  LEL: 100 mg/kg/day
  LOAEL: 100 mg/kg/day
[6]; [15]
  NEL: 25 mg/kg/day
  NOAEL: 25 mg/kg/day

## ClC(Cl)(Cl)c1ccccc1 [Benzotrichloride]
[7]; [16]
  LOAEL: > 25 mg/kg/day
  NEL: 0.025 mg/kg/day
  NOAEL: ≥ 25 mg/kg/day
[7]; systemic / clinical chemistry / sorbitol dehydrogenase / sorbitol dehydrogenase
  LEL: 0.25 mg/kg/day

## CC(Oc1cccc(Cl)c1)C(=O)O (stereo not drawn) [Cloprop]
[8]; [17]
  LEL: 200 mg/kg/day
  LOAEL: 200 mg/kg/day
  NEL: 100 mg/kg/day
  NOAEL: 100 mg/kg/day
[8]; [11]
  LEL: 200 mg/kg/day
  LOAEL: 200 mg/kg/day
  NEL: 100 mg/kg/day
  NOAEL: 100 mg/kg/day
[9]; [18]
  LEL: 98 mg/kg/day
  NEL: < 98 mg/kg/day
[9]; systemic / pathology microscopic / liver / hypertrophy
  LOAEL: 402 mg/kg/day
[9]; systemic / pathology microscopic / liver / hypertrophy + systemic / pathology microscopic / liver / adenoma + systemic / pathology …
  NOAEL: 98 mg/kg/day
